Results reported in patent publication US20250122239A1 (K BENHAVNS UNIVERSITET, published 2025).
Ends that are not written are not given here.

Experiments:
lean mice = test: food intake in chow fed lean mice, shortened GLP-1-NT combination peptides (Example 9); format: in vivo; settings: 100 nmol/kg, single SC injection, chow fed lean mice fasted overnight
Method: Chow fed lean mice fasted overnight were injected once SC in the beginning of the light cycle and food returned. Food intake measured continuously after injection in an indirect calorimetry system. Food intake was analysed using repeated measures two-way ANOVA followed by a Tukey's post hoc test.

[1] = molecular target: human neurotensin receptor NTSR1 (pCMVhNTSR 1, transiently expressed in HEK293 cells) (human, UniProt P30989 1-418); test: cell-based or functional assay
human neurotensin receptor NTSR1 (pCMVhNTSR 1, transiently expressed in HEK293 cells), sequence (P30989 whole entry): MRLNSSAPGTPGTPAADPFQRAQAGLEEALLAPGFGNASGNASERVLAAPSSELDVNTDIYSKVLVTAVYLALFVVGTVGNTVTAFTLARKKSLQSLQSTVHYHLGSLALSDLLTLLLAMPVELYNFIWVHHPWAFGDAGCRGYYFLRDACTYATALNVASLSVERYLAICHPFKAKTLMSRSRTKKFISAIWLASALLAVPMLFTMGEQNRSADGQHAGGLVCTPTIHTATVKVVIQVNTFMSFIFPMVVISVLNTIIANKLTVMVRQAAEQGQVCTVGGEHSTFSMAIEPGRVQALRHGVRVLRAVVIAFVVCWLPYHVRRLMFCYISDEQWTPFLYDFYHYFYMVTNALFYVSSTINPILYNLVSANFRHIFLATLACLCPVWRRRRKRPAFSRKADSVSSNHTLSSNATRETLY

inositol phosphate (IP) accumulation, LogEC50 [1] | Molecule | food intake in comparison to saline (lean mice)
 | HAEFTFTSDVSSYLEGQKKGGELYENKPRRPYIL-acid (HAEFTFTSDVSSYLEGQKKGGELYENKPRRPYIL-OH) [Peptide 10] | p<0.001 peptide 10 vs. saline
 | HAEGTFTSDVSSYLEGQELYENKPRRPYIL-acid (HAEGTFTSDVSSYLEGQELYENKPRRPYIL-OH) [Peptide 9] | p<0.05 peptide 9 vs. saline
-8.5 | HAEGTFTSDVSSYLEGQAAKEFIAWLVKGRLYENKPRRPYIL [GLP-1/NT fusion peptide (SEQ ID NO: 45)] | 
